Measured values: patent US10556865B2, “Synergistic herbicidal composition containing certain pyridine or pyrimidine carboxylic acids and certain cereal and rice herbicides” (Dow AgroSciences, LLC, priority 2007, dated 2020)
Several values for one entry are separate records, joined by “and”; a condition that tells them apart may be missing. Identical values can stand only once. Like-named read-outs stand apart in the source and are kept apart here.

Tests used:
Assay type in all cases: in vivo
[1] = test system: scented mayweed (Matricaria chamomila L; MATCH); test: Postemergence herbicidal activity of mixtures in cereal crops (greenhouse, visual injury); conditions: Matricaria, post-emergence, read-out: MATCH Ob
How it was run: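 Weeds grown in greenhouse (~14 h photoperiod, ~18/17 °C day/night) to second–third true leaf stage, sprayed postemergence with compound and second cereal herbicide alone or combined; solvent-blank controls. Injury scored visually after 20-22 days, 0–100% (complete kill); expected mixture activity = A+B−(A×B/100).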

Cyperus species (CYPSS) = test: Herbicidal mixtures for weed control in transplanted paddy rice (in-water application, visual % injury); conditions: for % Injury CYPES Ob: CYPES = Cyperus esculentus
How it was run: (§1)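 Flooded pots of puddled soil (54 percent sand, pH about 7.3 to 7.8) held weeds grown 4-14 days at about 29° C day, 26° C night. The herbicides, alone and in mixtures, were injected into the paddy water, then plants were scored visually for percent injury after 3 weeks.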

[2] = test system: Leptochloa chinensis (L.) NEES (LEFCH); test: as above
How it was run: as §1

[3] = test system: Marsilea crenata PRESL (MASCR); test: as above
How it was run: as §1

[4] = Compound A Methyl 17.5 g/ha alone
[5] = Compound A Methyl 35 g/ha alone
[6] = Quinclorac 140 g/ha alone (Compound A Methyl half)
[7] = Quinclorac 140 g/ha alone (Compound A TEA half)

Compound: COC(=O)c1nc(-c2ccc(Cl)c(OC)c2F)nc(N)c1Cl [Compound B Methyl, 6-amino-5-chloro-2-(4-chloro-2-fluoro-3-methoxyphenyl)pyrimidine-4-carboxylic acid methyl ester]
- pest or weed control at 8.75 g/ha ([1]; 8.75 g/ha alone): 10%
- pest or weed control at 17.5 g/ha ([1]; 17.5 g/ha alone): 10%
- pest or weed control at 35 g/ha ([1]; 35 g/ha alone): 40%
- pest or weed control at 70 g/ha ([1]; 70 g/ha alone): 45%

Compound: COC(=O)c1nc(-c2ccc(Cl)c(OC)c2F)cc(N)c1Cl [Compound A Methyl, 4-amino-3-chloro-6-(4-chloro-2-fluoro-3-methoxyphenyl)pyridine-2-carboxylic acid methyl ester]
- pest or weed control at 17.5 g/ha ([1]; 17.5 g/ha): 15%
- pest or weed control at 35 g/ha ([1]; 35 g/ha): 68%
- pest or weed control at 70 g/ha ([1]; 70 g/ha): 65%
- % Injury CYPES Ob (Cyperus species (CYPSS); [4]): 50%
- % Injury CYPES Ob (Cyperus species (CYPSS); Compound A Methyl 35 g/ha alone (Table 112)): 60%
- % Injury Ob (Cyperus species (CYPSS); CYPES, 4.38 g/ha alone): 0%
- % Injury Ob (Cyperus species (CYPSS); CYPES, 8.75 g/ha alone): 15%
- % Injury Ob ([2]; 8.75 g/ha alone): 0%
- % Injury Ob ([2]; 17.5 g/ha alone): 0%
- % Injury Ob ([2]; 35 g/ha alone): 0%
- % Injury LEFCH Ob [2, 4]: 10%
- % Injury LEFCH Ob [2, 5]: 20%
- % Injury MASCR Ob [3, 4]: 0%
- % Injury MASCR Ob [3, 5]: 50%

Compound: O=C(O)c1c(Cl)ccc2cc(Cl)cnc12 [Quinclorac]
- % Injury CYPES Ob (Cyperus species (CYPSS); [6]): 0%
- % Injury CYPES Ob (Cyperus species (CYPSS); [7]): 0%
- % Injury LEFCH Ob [2, 6]: 0%
- % Injury LEFCH Ob [2, 7]: 0%
- % Injury MASCR Ob [3, 6]: 0%
- % Injury MASCR Ob [3, 7]: 0%

Compound: COc1c(Cl)ccc(-c2cc(N)c(Cl)c(C(=O)O)n2)c1F [Compound A TEA, 4-amino-3-chloro-6-(4-chloro-2-fluoro-3-methoxyphenyl)pyridine-2-carboxylic acid]
- pest or weed control at 8.75 g/ha ([1]; 8.75 g/ha alone): 71%
- pest or weed control at 8.75 g/ha ([1]; 8.75 g/ha): 71%
- pest or weed control at 17.5 g/ha ([1]; 17.5 g/ha alone): 76%
- pest or weed control at 17.5 g/ha ([1]; 17.5 g/ha): 76%
- pest or weed control at 35 g/ha ([1]; 35 g/ha alone): 84%
- pest or weed control at 70 g/ha ([1]; 70 g/ha alone): 94%
- pest or weed control at 140 g/ha ([1]; 140 g/ha): 65%
- % Injury CYPES Ob (Cyperus species (CYPSS); Compound A TEA 17.5 g/ha alone): 30%
- % Injury CYPES Ob (Cyperus species (CYPSS); Compound A TEA 17.5 g/ha alone (Table 112)): 30%
- % Injury CYPES Ob (Cyperus species (CYPSS); Compound A TEA 35 g/ha alone (Table 112)): 70%
- % Injury Ob (Cyperus species (CYPSS); CYPES, 35 g/ha alone): 20% and 25%
- % Injury Ob (Cyperus species (CYPSS); CYPES, 70 g/ha alone): 50%
- % Injury Ob (Cyperus species (CYPSS); CYPIR, 35 g/ha alone): 10%
- % Injury Ob (Cyperus species (CYPSS); CYPIR, 70 g/ha alone): 20%
- % Injury Ob ([2]; 35 g/ha alone): 80%
- % Injury Ob ([2]; 70 g/ha alone): 99%
- % Injury LEFCH Ob ([2]; Compound A TEA 17.5 g/ha alone): 10%
- % Injury LEFCH Ob ([2]; Compound A TEA 35 g/ha alone): 15%
- % Injury MASCR Ob ([3]; Compound A TEA 35 g/ha alone): 60%
